Values quoted from earlier work as cited in publication PMC12495087 (ESMO Open, 2025).
Where two headings read alike, the source gives them in different places.

Experiments:
[1] = test system: RET-fusion-positive NSCLC; conditions: cited from earlier work
[2] = test system: RET-fusion-positive solid tumors including RET-mutant MTC; conditions: cited from earlier work
[3] = cited from earlier work
[4] = advanced RET-rearranged lung adenocarcinomas
[5] = patients with MTC harboring RET-M918T
[6] = previously treated RET-fusion-positive NSCLC, selpercatinib 160 mg twice daily, pralsetinib 400 mg once daily
[7] = previously treated RET-fusion-positive solid tumors including RET-mutant MTC, 160 mg twice daily

For COc1cc2nccc(Oc3ccc(NC(=O)C4(C(=O)Nc5ccc(F)cc5)CC4)cc3)c2cc1OC [cabozantinib], the ORR [1, 4] is given as 28% and the mPFS [1, 4] is given as 5.5 months.

In the case of COc1cc2nccc(Oc3ccc(NC(=O)NC4CC4)c(Cl)c3)c2cc1C(N)=O [lenvatinib], the ORR [2, 5] is given as 16% and the mPFS [2, 5] is given as 7.3 months.

For CO[C@]1(C(=O)N[C@@H](C)c2ccc(-n3cc(F)cn3)nc2)CC[C@H](c2nc(C)cc(Nc3cc(C)[nH]n3)n2)CC1 [pralsetinib], the “grade ≥3 hypertension” value [3] is given as about 18% and the ORR [1, 6] is given as 61%.

For COc1ccc(CN2C3CC2CN(c2ccc(-c4cc(OCC(C)(C)O)cn5ncc(C#N)c45)cn2)C3)cn1 [selpercatinib], the “1-year PFS” value [2, 7] is listed as 82%, the mPFS [2, 7] is listed as 13.2 months and the “grade ≥3 hypertension” value [3] is listed as “around 20%”. The mPFS ([1]; previously treated RET-fusion-positive NSCLC, 160 mg twice daily) was 16.5 months and the ORR [1, 6] was 64%.
